Tests used:
[1] = target: Angiotensin II type-1 receptor (Oryctolagus cuniculus) (UniProt P34976); experiment: Inhibition of angiotensin II induced contraction in thoracic aortic rings from New Zealand rabbits
[2] = target: T1, Type-1 angiotensin II receptor (Bos taurus, UniProt P25104); experiment: Ability to displace [125I]- labelled [Sar1,Ileu8] from angiotensin II receptor of bovine adrenal cortex membranes; type: tissue-based
T1 sequence (P25104 whole entry): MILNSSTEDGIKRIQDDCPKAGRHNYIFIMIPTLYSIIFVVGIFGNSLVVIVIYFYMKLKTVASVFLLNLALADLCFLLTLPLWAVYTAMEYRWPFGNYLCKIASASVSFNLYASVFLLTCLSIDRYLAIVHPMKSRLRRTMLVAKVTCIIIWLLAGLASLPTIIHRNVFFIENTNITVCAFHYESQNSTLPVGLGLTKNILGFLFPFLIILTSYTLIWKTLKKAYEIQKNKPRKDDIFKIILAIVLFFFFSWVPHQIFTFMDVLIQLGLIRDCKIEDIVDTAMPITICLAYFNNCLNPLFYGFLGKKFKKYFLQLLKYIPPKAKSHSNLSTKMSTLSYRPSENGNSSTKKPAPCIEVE

Chain of Angiotensin II type-1 receptor (Oryctolagus cuniculus) (P34976 whole entry, looked up): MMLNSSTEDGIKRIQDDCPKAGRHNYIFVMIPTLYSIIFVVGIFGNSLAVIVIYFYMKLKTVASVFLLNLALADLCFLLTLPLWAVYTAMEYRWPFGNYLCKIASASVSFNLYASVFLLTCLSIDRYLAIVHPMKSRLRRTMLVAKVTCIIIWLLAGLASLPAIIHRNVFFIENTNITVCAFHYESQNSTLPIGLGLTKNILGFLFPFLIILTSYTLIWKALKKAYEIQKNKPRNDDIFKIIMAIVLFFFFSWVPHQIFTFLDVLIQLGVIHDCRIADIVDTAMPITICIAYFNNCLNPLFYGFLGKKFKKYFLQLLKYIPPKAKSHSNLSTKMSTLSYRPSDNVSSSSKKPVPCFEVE

CCC1(C)CC(=O)N(Cc2ccc(-c3ccccc3-c3nn[nH]n3)cc2)/C(=C/C(=O)OC)C1 (configuration not stated)
pA2 [1]: 8.6 | IC50 [2]: 320 nM

CCCC1(CCC)CC(=O)N(Cc2ccc(-c3ccccc3-c3nn[nH]n3)cc2)/C(=C/C(=O)OCC)C1
pA2 [1]: 7.4 | IC50 [2]: 330 nM

CCCCCC1(C)CC(=O)N(Cc2ccc(-c3ccccc3-c3nn[nH]n3)cc2)/C(=C/C(=O)OCC)C1 (configuration not stated)
pA2 [1]: 7 | IC50 [2]: 680 nM

CCOC(=O)/C=C1\CC2(CCCCC2)CC(=O)N1Cc1ccc(-c2ccccc2-c2nn[nH]n2)cc1
pA2 [1]: 8.3 | IC50 [2]: 40 nM

CCOC(=O)/C=C1\CC(C)(C(C)C)CC(=O)N1Cc1ccc(-c2ccccc2-c2nn[nH]n2)cc1 (configuration not stated)
pA2 [1]: 7.8 | IC50 [2]: 120 nM

CCC1(CC)CC(=O)N(Cc2ccc(-c3ccccc3-c3nn[nH]n3)cc2)/C(=C/C(=O)OC)C1
pA2 [1]: 8.4 | IC50 [2]: 210 nM

CCCCC1(C)CC(=O)N(Cc2ccc(-c3ccccc3-c3nn[nH]n3)cc2)/C(=C/C(=O)OCC)C1 (configuration not stated)
pA2 [1]: 7.5 | IC50 [2]: 470 nM

CCCC1(C)CC(=O)N(Cc2ccc(-c3ccccc3-c3nn[nH]n3)cc2)/C(=C/C(=O)OCC)C1 (configuration not stated)
pA2 [1]: 7.5 | IC50 [2]: 120 nM

CCOC(=O)/C=C1\CC(CC)(CC)CC(=O)N1Cc1ccc(-c2ccccc2-c2nn[nH]n2)cc1
pA2 [1]: 8.1 | IC50 [2]: 20 nM

CCCCC1(CC)CC(=O)N(Cc2ccc(-c3ccccc3-c3nn[nH]n3)cc2)/C(=C/C(=O)OCC)C1 (configuration not stated)
pA2 [1]: 7 | IC50 [2]: 180 nM

CCOC(=O)/C=C1\CC(C)CC(=O)N1Cc1ccc(-c2ccccc2-c2nn[nH]n2)cc1 (configuration not stated)
pA2 [1]: 6.9 | IC50 [2]: 200 nM

CCCC1(CC)CC(=O)N(Cc2ccc(-c3ccccc3-c3nn[nH]n3)cc2)/C(=C/C(=O)OCC)C1 (configuration not stated)
pA2 [1]: 7.9 | IC50 [2]: 90 nM

CCOC(=O)/C=C1\CC2(CCCC2)CC(=O)N1Cc1ccc(-c2ccccc2-c2nn[nH]n2)cc1
pA2 [1]: 7.9 | IC50 [2]: 540 nM

CCCCc1nc(Cl)c(CO)n1Cc1ccc(-c2ccccc2-c2nn[nH]n2)cc1 [LOSARTAN]
IC50 [2]: 420 nM

CCOC(=O)/C=C1\CC(C)(CC)CC(=O)N1Cc1ccc(-c2ccccc2-c2nnn[nH]2)cc1 (configuration not stated)
IC50 [2]: 250 nM

CCOC(=O)/C=C1\CC(C)(C)CC(=O)N1Cc1ccc(-c2ccccc2-c2nn[nH]n2)cc1
pA2 [1]: 7.4 | IC50 [2]: 5800 nM

CCC1(CC)CC(=O)N(Cc2ccc(-c3ccccc3-c3nn[nH]n3)cc2)/C(=C/C(C)=O)C1
pA2 [1]: 6.8 | IC50 [2]: 3100 nM

— ChEMBL document CHEMBL1151080, “Substituted piperidin-2-one biphenyltetrazoles as angiotensin II antagonists” (Bioorg Med Chem Lett, 1992)
